Experimental data reported in PubChem BioAssay AID330 (DTP/NCI, 2004).
Values joined by “and” are separate entries in the source; they are usually repeats but may differ in a detail not shown here. Identical values can stand only once. Toxic doses and inconclusive results are not listed. Rule for the calls: active = survival T/C of 150% or more; inactive = T/C below 125% in these data.

Test system: P388 leukemia ip, CD2F1 mice, survival T/C
Test: NCI In Vivo Anticancer Drug Screen. Data for tumor model P388 Leukemia (intraperitoneal) in CD2F1 (CDF1) mice
Conditions: endpoint: median survival time, higher = longer survival
Summary of the method: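 Mice carrying the transplanted tumor received test compound or vehicle. Survival was recorded in each group, and the value is the treated-group measurement divided by that of the vehicle-treated control group.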

[1] = dose: 60.0 mg/kg/injection, schedule: Q01DX005 (ip), vehicle: Klucel (hydroxypropylcellulose) (HPC)
[2] = dose: 120.0 mg/kg/injection, schedule: Q01DX005 (ip), vehicle: Klucel (hydroxypropylcellulose) (HPC)
[3] = dose: 240.0 mg/kg/injection, schedule: Q01DX005 (ip), vehicle: Klucel (hydroxypropylcellulose) (HPC)
[4] = dose: 50.0 mg/kg/injection, schedule: Q01DX009 (ip), vehicle: saline with Tween-80
[5] = dose: 100.0 mg/kg/injection, schedule: Q01DX009 (ip), vehicle: saline with Tween-80
[6] = dose: 200.0 mg/kg/injection, schedule: Q01DX009 (ip), vehicle: saline with Tween-80
[7] = dose: 60.0 mg/kg/injection, schedule: Q01DX005 (ip), vehicle: saline with Tween-80
[8] = dose: 120.0 mg/kg/injection, schedule: Q01DX005 (ip), vehicle: saline with Tween-80
[9] = dose: 50.0 mg/kg/injection, schedule: Q01DX005 (ip), vehicle: Klucel (hydroxypropylcellulose) (HPC)
[10] = dose: 100.0 mg/kg/injection, schedule: Q01DX005 (ip), vehicle: Klucel (hydroxypropylcellulose) (HPC)
[11] = dose: 200.0 mg/kg/injection, schedule: Q01DX005 (ip), vehicle: Klucel (hydroxypropylcellulose) (HPC)
[12] = dose: 25.0 mg/kg/injection, schedule: Q01DX005 (ip), vehicle: Klucel (hydroxypropylcellulose) (HPC)
[13] = dose: 15.0 mg/kg/injection, schedule: Q01DX005 (ip), vehicle: Klucel (hydroxypropylcellulose) (HPC)
[14] = dose: 30.0 mg/kg/injection, schedule: Q01DX005 (ip), vehicle: Klucel (hydroxypropylcellulose) (HPC)
[15] = dose: 60.0 mg/kg/injection, schedule: Q01DX005 (ip), vehicle: saline
[16] = dose: 50.0 mg/kg/injection, schedule: Q04DX003 (ip), vehicle: saline with Tween-80
[17] = dose: 100.0 mg/kg/injection, schedule: Q04DX003 (ip), vehicle: saline with Tween-80
[18] = dose: 50.0 mg/kg/injection, schedule: Q01DX009 (ip), vehicle: Klucel (hydroxypropylcellulose) (HPC)
[19] = dose: 100.0 mg/kg/injection, schedule: Q01DX009 (ip), vehicle: Klucel (hydroxypropylcellulose) (HPC)
[20] = dose: 200.0 mg/kg/injection, schedule: Q01DX009 (ip), vehicle: Klucel (hydroxypropylcellulose) (HPC)

Measured: T/C

CC(=O)Oc1cc2c(cc1C(NC(N)=O)c1ccc3c(c1)OCO3)OCO2 (stereo unspecified)
inactive: [1] 100 % of control | [2] 93 % of control | [3] 92 % of control

CC(=O)OC1CCC2C3CCc4cc(OP(=O)(N5CC5)N5CC5)ccc4C3CCC12C (stereo unspecified)
inactive: [4] 92 % of control | [5] 114 % of control | [6] 108 % of control

O=C1OC(=O)C2C1C1c3ccccc3C2(O)c2ccccc21 (stereo unspecified)
inactive: dose: 30.0 mg/kg/injection, schedule: Q01DX005 (ip), vehicle: saline with Tween-80 106 % of control | [7] 100 % of control | [8] 94 % of control

CN(C)C(=S)SCc1ccc(C(=O)O)nc1
inactive: [4] 99 % of control | [5] 98 % of control

CC[As](CC)SC(CC[C@@H](C)C1CC[C@@]2(C)C3=C(CC[C@]12C)[C@@]1(C)CC[C@H](O)C(C)(C)[C@@H]1CC3)C(C)C (stereo partly specified)
inactive: [9] 87 % of control | [10] 92 % of control | [11] 95 % of control

FC1(F)SC(F)(F)S1
inactive: [9] 108 % of control | [10] 108 % of control | [11] 108 % of control

O=C1c2ccccc2C(=O)C1C(=Nc1ccccc1Cl)c1ccccc1
inactive: dose: 12.5 mg/kg/injection, schedule: Q01DX005 (ip), vehicle: Klucel (hydroxypropylcellulose) (HPC) 90 % of control | [12] 88 % of control | [9] 86 % of control | [10] 94 % of control

O=C1Cc2ccccc2NC(c2ccccc2)C1S(=O)(=O)c1ccccc1 (stereo unspecified)
inactive: [9] 102 % of control | [10] 102 % of control | [11] 101 % of control

O=C1NC(=O)/C(=C/C=C/c2ccccc2)S1
inactive: dose: 25.0 mg/kg/injection, schedule: Q01DX009 (ip), vehicle: saline with Tween-80 102 % of control and 111 % of control | [4] 102 % of control and 116 % of control and 118 % of control | [5] 93 % of control | [6] 123 % of control

CC1(C)OC(=O)N=C1c1cccc(Cl)c1
inactive: [1] 102 % of control | [2] 101 % of control | [3] 117 % of control

CC(C)=NNC1=NC(C)(C)P(=O)(NNc2ncccn2)S1 (stereo unspecified)
inactive: [13] 107 % of control | [14] 105 % of control | [1] 93 % of control | [15] 98 % of control

CC(C)COP(=O)(OCC(C)C)OCC(C)C.CC(C)COP(=O)(OCC(C)C)OCC(C)C.CC(C)COP(=O)(OCC(C)C)OCC(C)C.CC(C)COP(=O)(OCC(C)C)OCC(C)C.O.O.[Co+2].[O-][Cl+3]([O-])([O-])O
inactive: dose: 25.0 mg/kg/injection, schedule: Q04DX003 (ip), vehicle: saline with Tween-80 94 % of control | [16] 99 % of control | [17] 114 % of control and 116 % of control

CN(C)C1=NC(N(C)C)=C2C=C(C(C)(C)C)C=C12
inactive: [1] 101 % of control | [2] 101 % of control

CCN(CC)CCCC(Nc1c2ccc(Cl)cc2nc2ccc(OC)cc12)c1cccc2ccccc12 (stereo unspecified)
inactive: dose: 6.0 mg/kg/injection, schedule: Q01DX005 (ip), vehicle: Klucel (hydroxypropylcellulose) (HPC) 103 % of control | dose: 12.0 mg/kg/injection, schedule: Q01DX005 (ip), vehicle: Klucel (hydroxypropylcellulose) (HPC) 106 % of control | [12] 106 % of control

Cn1cc(C2=C(Cl)C(=O)N(c3cc(Cl)cc(Cl)c3)C2=O)c(=O)n(C)c1=O
inactive: [13] 99 % of control | [14] 99 % of control | [1] 111 % of control

CCOP1(OCC)(SSC)OC(=O)C(C)S1 (stereo unspecified)
inactive: dose: 5.0 mg/kg/injection, schedule: Q01DX005 (ip), vehicle: saline with Tween-80 108 % of control | dose: 10.0 mg/kg/injection, schedule: Q01DX005 (ip), vehicle: saline with Tween-80 101 % of control | dose: 20.0 mg/kg/injection, schedule: Q01DX005 (ip), vehicle: saline with Tween-80 108 % of control | [7] 94 % of control

CC(C)CC(NC=O)C(=O)O (stereo unspecified)
inactive: [9] 104 % of control and 109 % of control | [10] 95 % of control and 100 % of control | [11] 90 % of control

COC(=O)N1C(c2ccccc2)C=CC(c2ccccc2)N1C(=O)OC (stereo unspecified)
inactive: [1] 103 % of control | [2] 96 % of control | [3] 96 % of control

COc1ccc(C=NC#N)cc1
inactive: [18] 101 % of control | [19] 93 % of control | [20] 88 % of control

C[Si](C)(C)CN(Cc1ccccc1)C(=O)c1ccccc1[N+](=O)[O-]
inactive: dose: 50.0 mg/kg/injection, schedule: Q01DX005 (ip), vehicle: saline with Tween-80 105 % of control | dose: 100.0 mg/kg/injection, schedule: Q01DX005 (ip), vehicle: saline with Tween-80 98 % of control | dose: 200.0 mg/kg/injection, schedule: Q01DX005 (ip), vehicle: saline with Tween-80 103 % of control

Nc1nc(-c2ccc(Cl)c(Cl)c2)cc(-c2cc(-c3ccc(Cl)c(Cl)c3)nc(N)n2)n1
inactive: [7] 96 % of control | [8] 95 % of control | dose: 240.0 mg/kg/injection, schedule: Q01DX005 (ip), vehicle: saline with Tween-80 95 % of control

CCc1cccc(C)c1NC(=O)C(=O)C(C#N)c1ccccc1 (stereo unspecified)
inactive: [15] 105 % of control | dose: 120.0 mg/kg/injection, schedule: Q01DX005 (ip), vehicle: saline 108 % of control | dose: 240.0 mg/kg/injection, schedule: Q01DX005 (ip), vehicle: saline 108 % of control

CC(=O)O.[In]
inactive: dose: 0.1 mg/mouse/injection, schedule: Q01DX020 (oral), vehicle: saline with Tween-80 100 % of control

COc1nc(C(O)C2OC(C)(C)OCC2O)[nH]c1C#N (stereo unspecified)
inactive: [18] 106 % of control | [19] 102 % of control and 91 % of control | [20] 103 % of control and 110 % of control

COc1ccc2c(c1OC)C(=C(C#N)C#N)N1CCc3cc4c(cc3C1=C2)OCO4
inactive: dose: 0.63 mg/kg/injection, schedule: Q01DX009 (ip), vehicle: distilled water + Tween-80 103 % of control | dose: 1.25 mg/kg/injection, schedule: Q01DX009 (ip), vehicle: distilled water + Tween-80 94 % of control | dose: 2.5 mg/kg/injection, schedule: Q01DX009 (ip), vehicle: distilled water + Tween-80 112 % of control | dose: 5.0 mg/kg/injection, schedule: Q01DX009 (ip), vehicle: distilled water + Tween-80 112 % of control | dose: 10.0 mg/kg/injection, schedule: Q01DX009 (ip), vehicle: distilled water + Tween-80 108 % of control | dose: 20.0 mg/kg/injection, schedule: Q01DX009 (ip), vehicle: distilled water + Tween-80 121 % of control

N#CC1(OC2OC(CO)C(O)C(O)C2O)C=CC(O)C1O (stereo unspecified)
inactive: dose: 25.0 mg/kg/injection, schedule: Q01DX005 (ip), vehicle: saline 106 % of control | dose: 50.0 mg/kg/injection, schedule: Q01DX005 (ip), vehicle: saline 120 % of control | dose: 100.0 mg/kg/injection, schedule: Q01DX005 (ip), vehicle: saline 111 % of control and 97 % of control | dose: 200.0 mg/kg/injection, schedule: Q01DX005 (ip), vehicle: saline 121 % of control and 97 % of control | dose: 400.0 mg/kg/injection, schedule: Q01DX005 (ip), vehicle: saline 102 % of control

CCSc1nc(C)cc(Cl)n1
inactive: [16] 100 % of control | [17] 100 % of control | dose: 200.0 mg/kg/injection, schedule: Q04DX003 (ip), vehicle: saline with Tween-80 113 % of control
